Data on two molecules can be found in ChEMBL document CHEMBL3045651, “Nymania-3: a bioactive triterpenoid from Dysoxylum malabaricum” (1999).

Holding throughout (type): functional
Test [1] relates to Olepa ricini. Briefly: Antifeedant activity against Olepa ricini fed on compound pre-treated castor leaves assessed as duration of development of fifth-instar larvae at 0.5 ug/cm2 by dual choice leaf disk method (reference value: 4.5 +/- 0.4 days).
The test system of test [2] is Olepa ricini. The test can be described thus: Antifeedant activity against Olepa ricini fed on compound pre-treated castor leaves assessed as duration of development of fourth-instar larvae at 0.5 ug/cm2 by dual choice leaf disk method (reference value: 7.5 +/- 0.2 days).
In test [3] the test system is Olepa ricini. Briefly: Antifeedant activity against Olepa ricini fed on compound pre-treated castor leaves assessed as percent feeding index at 5 ug/cm2 by dual choice leaf disk method.
Test [4] deals with Olepa ricini. Briefly: Antifeedant activity against Olepa ricini fed on compound pre-treated castor leaves assessed as percent feeding index at 10 ug/cm2 by dual choice leaf disk method.
In test [5] the test system is Olepa ricini. The test can be described thus: Antifeedant activity against Olepa ricini fed on compound pre-treated castor leaves assessed as duration of development of third-instar larvae at 0.5 ug/cm2 by dual choice leaf disk method (reference value: 4.5 +/- 0.7 days).
Test [6] concerns Olepa ricini. The test can be described thus: Antifeedant activity against Olepa ricini fed on compound pre-treated castor leaves assessed as percent feeding index at 50 ug/cm2 by dual choice leaf disk method.
The subject of test [7] is Olepa ricini. The test can be described thus: Antifeedant activity against Olepa ricini fed on compound pre-treated castor leaves assessed as pupal weight at 0.5 ug/cm2 by dual choice leaf disk method (reference value: 476 +/- 10.6 mg).
The test system of test [8] is Olepa ricini. The test can be described thus: Antifeedant activity against Olepa ricini fed on compound pre-treated castor leaves assessed as duration of development of pupa at 0.5 ug/cm2 by dual choice leaf disk method (reference value: 7.5 +/- 0.3 days).
Test [9] relates to Olepa ricini. Briefly: Antifeedant activity against Olepa ricini fed on compound pre-treated castor leaves assessed as percent feeding index at 1 ug/cm2 by dual choice leaf disk method.
Test [10] relates to Olepa ricini. Briefly: Antifeedant activity against Olepa ricini fed on compound pre-treated castor leaves assessed as insect mortality at 0.5 ug/cm2 by dual choice leaf disk method (reference value: 4%). The note with it: foliar.
Test [11] concerns Olepa ricini. The test can be described thus: Antifeedant activity against Olepa ricini fed on compound pre-treated castor leaves assessed as pupal weight at 1 ug/cm2 by dual choice leaf disk method (reference value: 476 +/- 10.6 mg).
Test [12] relates to Olepa ricini. Briefly: Antifeedant activity against Olepa ricini fed on compound pre-treated castor leaves assessed as duration of development of pupa at 1 ug/cm2 by dual choice leaf disk method (reference value: 7.5 +/- 0.3 days).
Test [13] deals with Olepa ricini. The test can be described thus: Antifeedant activity against Olepa ricini fed on compound pre-treated castor leaves assessed as duration of development of fifth-instar larvae at 1 ug/cm2 by dual choice leaf disk method (reference value: 4.5 +/- 0.4 days).
Test [14] has as its system Olepa ricini. Briefly: Antifeedant activity against Olepa ricini fed on compound pre-treated castor leaves assessed as insect mortality at 1 ug/cm2 by dual choice leaf disk method (reference value: 4%). The settings on record: foliar.
Test [15] has as its system Olepa ricini. The test can be described thus: Antifeedant activity against Olepa ricini fed on compound pre-treated castor leaves assessed as duration of development of fourth-instar larvae at 1 ug/cm2 by dual choice leaf disk method (reference value: 7.5 +/- 0.2 days).
The subject of test [16] is Olepa ricini. Briefly: Antifeedant activity against Olepa ricini fed on compound pre-treated castor leaves assessed as duration of development of third-instar larvae at 1 ug/cm2 by dual choice leaf disk method (reference value: 4.5 +/- 0.7 days).

What is called mortality is the share of the test organisms that died.

Consider `C/C=C(\C)C(=O)O[C@H]1C[C@@H](OC(C)=O)[C@@]2(C(=O)OC)CO[C@H]3[C@@H](O)[C@@](C)([C@]45O[C@@]4(C)[C@H]4C[C@@H]5O[C@@H]5OC=C[C@@]54O)[C@H]4[C@]1(CO[C@]4(O)C(=O)OC)[C@@H]32` [AZADIRACTIN], for which the Time amounted to 5.7 days with Olepa ricini [1], 8.6 days in the test on Olepa ricini [2], 7 days in the test with Olepa ricini [5] and 7.4 days in the test on Olepa ricini [8]. The FI in the test on Olepa ricini [3] was found to be 15.6%; with Olepa ricini [4], 12.5%; in the test on Olepa ricini [6], 10%; with Olepa ricini [9], 20.8%. In addition, the Activity in the test with Olepa ricini [7] stood at 344 mg. Also, the mortality at 0.5 µg/cm2 in the test with Olepa ricini [10] was found to be 16%.
For `C=C1[C@@H]([C@@]2(C)C=CC(=O)OC(C)(C)[C@@H]2CC(=O)OC)[C@@H](OC(C)=O)[C@H](OC(C)=O)[C@@]2(C)[C@@H](c3ccoc3)C[C@H]3O[C@]132` [NYMANIA], the Activity with Olepa ricini [11] is 428 mg. The Time with Olepa ricini [12] was determined as 7.4 days; in the test with Olepa ricini [13] it was 5.3 days; with Olepa ricini [15], 8.8 days; in the test with Olepa ricini [16], 6.8 days. Moreover, the FI in the test on Olepa ricini [3] was found to be 30%; in the test with Olepa ricini [4], 23.4%; with Olepa ricini [6] it was 19.5%; in the test on Olepa ricini [9], 33.5%. In addition, the mortality at 1 µg/cm2 in the test on Olepa ricini [14] is 16%.
